Measured values as given in US20260102377A1, “COMPOSITIONS AND METHODS FOR TREATING MYASTHENIA GRAVIS” (priority 2022, published 2026).
Read-outs that look alike come from different tables or passages of the source.

How the values were obtained:
[1] = tested on: soleus muscle fibres from healthy and EAMG rats; test: Rheobase current (muscle fibre excitability) in soleus muscle fibres; format: cell-based, rat; details: 20 μM NMD670; soleus muscle fibres from healthy (n=20) and EAMG (n=12) rats, before vs after addition
Text: To allow for measurements of electrophysiological properties at the cellular level and for measurements of force, it was necessary to isolate nerve-muscle preparations from the rats. To this end, animals were sacrificed, and muscles were dissected out with 1 to 3 cm of intact nerve. The nerve-muscle preparations were then transferred to the organ baths used for the particular experiments (see below) and perfused with Normal Krebs-Ringer (NKR) solution, consisting of (in mM); 122 NaCl, 25 NaHCO3, 2.8 KCl, 1.2 KH2PO4, 1.2 MgSO4 1.27 CaCl2 and 5 D-glucose. This NKR solution was continuously gassed with a mixture of 95% oxygen and 5% CO2, to maintain a pH of approx. 7.4. In some experiments methyl-sulphate was used to replace Cl^− in the solution. All chemicals used were of analytical grade.

[2] = Phase I clinical trial Part A: pharmacokinetics; format: in vivo; details: human; for half-life: read-out: T1/2 (mean ± SD, hr) (converted)
Procedure: • Collect blood (3 mL recommended) onto wet ice (K2EDTA tubes) • Immediately cool blood on crushed wet ice for maximum of 30 minutes • Harvest plasma as quickly as possible using refrigerated centrifuge by centrifuging at 2000 g for 10 minutes at 4° C. • Keep plasma on wet ice and immediately stabilise with 1:1 (v/v) addition of Water: Orthophosphoric Acid (100:2 v/v) prepared using ≥85% orthophosphoric acid and deionised water (e.g. 750 μL plasma+750 μL stabiliser). • Mix sample thoroughly. • Keep the stabilised plasma on wet ice during subsequent steps. • Divide the stabilised plasma into 5×250 μL aliquots in plastic cryotubes. • Store aliquots at nominal −70° C./−80° C. promptly.
• 1. Thaw frozen calibration standards, QC samples, blank matrix and study samples on wet ice. • 2. Vortex-mix all samples thoroughly. • 3. On wet ice aliquot 150 μL of calibration standards, QC samples, study samples, and blanks into a 2 mL 96-well plate. For the reagent blank add the same volume of Water. • 4. On wet ice add 25 μL of Methanol:Water (50:50) to wells containing blanks and the same volume of ISTD intermediate solution to all other wells. • 5. On wet ice add 125 μL of Water to each well. Cap plate and vortex-mix (˜5 minutes, 1000 rpm). • 6. Centrifuge plate (˜3000 g, 3 minutes, room temperature). • 7. Condition SPE plate (Waters Oasis HLB pElution) with 250 μL Methanol. • 8. Condition SPE plate with 250 μL of Water. • 9. Load 250 μL of the sample onto the SPE plate (aspirate from the rim of the cone to avoid any debris collected at the bottom of the well). Pass through using minimum pressure. • 10. Wash SPE plate with 250 μL of Water. • 11. Wash SPE plate with 250 μL of Methanol:Water (5:95). Briefly increase pressure for one minute to ensure sorbent is partially dried. • 12. Elute from SPE plate into a 1.2 mL 96-well plate using 30 μL of Methanol. Stand for one minute then pass through using absolute minimum pressure. • 13. Elute again with another 30 μL of Methanol, collecting into the same plate. Briefly increase pressure for one minute to complete the elution. • 14. Add 125 μL of Ammonium Formate 10 mM (aq):Formic Acid (100:0.3) to each well. Cap plate and vortex mix (˜1 minute, ≥1200 rpm). • 15. Store plate refrigerated prior to analysis.
Subjects received 800 mg NMD670.

[3] = tested on: patients with myasthenia gravis; test: Phase IIA clinical trial (Part C): repetitive nerve stimulation (CMAP decrement, nasalis muscle); format: in vivo, human; details: for RNS decrement responders / Patients with RNS decrement at baseline who recovered (less than 5% decrement): 3- and 5-hour measurements; for RNS decrement responders: placebo 0%
Procedure: For each subject, the study consisted of three study periods during which subjects received either a single dose of NMD670 400 mg, NMD670 1200 mg, or placebo with a 7-day washout period between visits. On these study visits, subjects were asked to refrain from their regular dose of pyridostigmine (if applicable) from 14 h before dosing until after the last pharmacodynamic measurement on Day 1 (see Table 13: Visit and Assessment Schedule). The cross-over design allowed intra-individual comparison of drug effects versus placebo (see FIG. 16). A balanced design was applied to control for first-order carry-over effects.
Part C was a double-blinded, placebo-controlled, three-way cross-over comparison of two single oral doses of NMD670 in men and women with stable symptomatic myasthenia gravis. 12 patients were enrolled. For each subject, the study consisted of three study periods during which subjects received either a single dose of NMD670 or placebo. On these study visits, subjects were asked to refrain from their regular dose of pyridostigmine (if applicable) for 14 hours before dosing. Single doses were administered in randomized order (400 mg free acid, 1200 mg free acid, or placebo p.o.), with a 7-day washout period between visits (FIG. 16). NMD670/placebo was administered with 240 ml of still water.
RNS uses trains of 10 supramaximal electrical stimuli at 3 and 5 Hz using a Medelec Synergy 11.0. The optimal stimulation site on the skin is identified using inframaximal stimuli, after which the limit of supramaximal intensity is established. The working intensity is about 130% of that threshold. RNS is performed on the facial nerve/nasalis muscle combination. Techniques have been described previously (Niks et al., Muscle & Nerve, 2003, 28(2):236-238; Ruys-Van Oeyen et al., Muscle & Nerve, 2002, 26(2):279-282; Schumm et al., Muscle & Nerve, 1984, 7(2):147-151).
Compound Muscle Action Potentials (CMAPs) were recorded from the nasalis muscle in response to nerve stimulation. Decrement refers to decline in CMAP amplitude during repeated stimulation and indicates neuromuscular transmission failure.

[4] = Phase I clinical trial Part A: pharmacokinetics; format: in vivo; details: human; for Cmax / half-life / AUC(0-inf): plasma; for AUC(0-inf): read-out: AUC0-infinity (Mean ± SD, h · ng/mL)
[5] = male, po, 1600 mg, 1600 mg single oral dose, healthy male subjects, SD not given

C[C@H](Oc1ccc(Br)cc1-c1ccon1)C(=O)O [NMD670, (2S)-2-[4-bromo-2-(1,2-oxazol-3-yl)phenoxy]propanoic acid]
Rheobase current [1]: significantly reduced rheobase current | AUC(0-inf) ([2]; female, plasma, po, 800 mg, 800 mg (female), single oral dose, read-out: AUC0-infinity (Mean ± SD, h · ng/mL)): 256 ± 56.2 µg·h/mL | half-life ([2]; female, plasma, po, 800 mg, 800 mg (female), single oral dose): 5.55 ± 0.55 h | Linearity of PK parameters ([2]; phase 1 FIH study): approximately linear and predictable | half-life ([2]; male, plasma, po, 800 mg, 800 mg fasted (male), single oral dose): 5.39 ± 0.82 h | half-life ([2]; male, plasma, po, 800 mg, 800 mg fed (male), single oral dose): 5.02 ± 1.04 h | Treatment effect on CMAP decrement (continuous measurements) ([3]; 400 mg and 1200 mg single doses, nasalis muscle): No significant treatment effects and no trends of dose-dependent effects | RNS decrement responders ([3]; 400 mg arm): 83% | Patients with RNS decrement at baseline who recovered (less than 5% decrement) ([3]; 400 mg arm, of 6 subjects with decrement at baseline): 5 subjects | RNS decrement responders ([3]; 1200 mg arm): 33% | Patients with RNS decrement at baseline who recovered (less than 5% decrement) ([3]; 1200 mg arm, of 3 subjects with decrement at baseline): 1 subjects | Cmax ([4]; female, po, 800 mg, 800 mg (female), single oral dose, read-out: Cmax (Mean ± SD, ng/mL)): 44400 ± 7480 ng/mL | Accumulation between single and multiple dosing ([4]; phase 1 FIH study): no meaningful accumulation | half-life ([4]; oral, mostly eliminated in 24 hours, read-out: Half-life (converted)): ~5 h | Cmax ([4]; male, po, 50 mg, 50 mg single oral dose, healthy male subjects, read-out: Cmax (Mean ± SD, ng/mL)): 1900 ± 580 ng/mL | AUC(0-inf) ([4]; male, po, 100 mg, 100 mg single oral dose, healthy male subjects): 18.5 ± 1.77 µg·h/mL | Cmax ([4]; male, po, 100 mg, 100 mg single oral dose, healthy male subjects, read-out: Cmax (Mean ± SD, ng/mL)): 3980 ± 1190 ng/mL | half-life ([4]; male, po, 100 mg, 100 mg single oral dose, healthy male subjects, read-out: T1/2 (mean ± SD, hr) (converted)): 5.07 ± 0.63 h | AUC(0-inf) ([4]; male, po, 200 mg, 200 mg single oral dose, healthy male subjects): 36.1 ± 5.03 µg·h/mL | Cmax ([4]; male, po, 200 mg, 200 mg single oral dose, healthy male subjects, read-out: Cmax (Mean ± SD, ng/mL)): 7780 ± 1130 ng/mL | half-life ([4]; male, po, 200 mg, 200 mg single oral dose, healthy male subjects, read-out: T1/2 (mean ± SD, hr) (converted)): 4.6 ± 0.67 h | AUC(0-inf) ([4]; male, po, 400 mg, 400 mg single oral dose, healthy male subjects): 87.7 ± 21.4 µg·h/mL | Cmax ([4]; male, po, 400 mg, 400 mg single oral dose, healthy male subjects, read-out: Cmax (Mean ± SD, ng/mL)): 20100 ± 7340 ng/mL | half-life ([4]; male, po, 400 mg, 400 mg single oral dose, healthy male subjects, read-out: T1/2 (mean ± SD, hr) (converted)): 4.68 ± 0.49 h | AUC(0-inf) ([4]; male, po, 800 mg, 800 mg fasted (male), single oral dose): 191 ± 31.5 µg·h/mL | Cmax ([4]; male, po, 800 mg, 800 mg fasted (male), single oral dose, read-out: Cmax (Mean ± SD, ng/mL)): 36700 ± 15400 ng/mL | AUC(0-inf) ([4]; male, po, 800 mg, 800 mg fed (male), single oral dose): 180 ± 27.9 µg·h/mL | Cmax ([4]; male, po, 800 mg, 800 mg fed (male), single oral dose, read-out: Cmax (Mean ± SD, ng/mL)): 37300 ± 7420 ng/mL | AUC(0-inf) ([4]; male, po, 1200 mg, 1200 mg single oral dose, healthy male subjects): 358 ± 176 µg·h/mL | Cmax ([4]; male, po, 1200 mg, 1200 mg single oral dose, healthy male subjects, read-out: Cmax (Mean ± SD, ng/mL)): 55000 ± 21700 ng/mL | half-life ([4]; male, po, 1200 mg, 1200 mg single oral dose, healthy male subjects, read-out: T1/2 (mean ± SD, hr) (converted)): 6.11 ± 1.28 h | Cmax [4, 5]: 123000 ng/mL | AUC(0-inf) [4, 5]: 826 µg·h/mL | half-life ([4]; male, po, 1600 mg, 1600 mg single oral dose, healthy male subjects, SD not given, read-out: T1/2 (mean ± SD, hr) (converted)): 4.48 h
